Measurements: PubChem BioAssay (NCI)
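Method: 48-hour compound exposure of cells in 96-well plates, five concentrations, linear interpolation of endpoints. The concentration for full growth arrest is given as TGI.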

Legend:
Experiment in all cases: growth of human tumour cells (NCI), 48 h
A498 renal = test system: A498 renal
A549 NSCLC = test system: A549 NSCLC
BT-549 breast = test system: BT-549 breast
CAKI-1 renal = test system: CAKI-1 renal
CCRF-CEM leukemia = test system: CCRF-CEM leukemia
HCC-2998 colon = test system: HCC-2998 colon
HCT-116 colon = test system: HCT-116 colon
HOP-92 NSCLC = test system: HOP-92 NSCLC
IGROV1 ovarian = test system: IGROV1 ovarian
MALME-3M melanoma = test system: MALME-3M melanoma
MDA-N = test system: MDA-N
NCI-H226 lung = test system: NCI-H226 lung
OVCAR-3 ovarian = test system: OVCAR-3 ovarian
RXF 393 renal = test system: RXF 393 renal
SF-295 CNS = test system: SF-295 CNS
SK-OV-3 ovarian = test system: SK-OV-3 ovarian
SN12C renal = test system: SN12C renal
T-47D breast = test system: T-47D breast
U251 CNS = test system: U251 CNS
NCI-H460 lung = test system: NCI-H460 lung

Structure (SMILES)	TGI (A498 renal) [µM]	TGI (A549 NSCLC) [µM]	TGI (BT-549 breast) [µM]	TGI (CAKI-1 renal) [µM]	TGI (CCRF-CEM leukemia) [µM]	TGI (HCC-2998 colon) [µM]	TGI (HCT-116 colon) [µM]	TGI (HOP-92 NSCLC) [µM]	TGI (IGROV1 ovarian) [µM]	TGI (MALME-3M melanoma) [µM]	TGI (MDA-N) [µM]	TGI (NCI-H226 lung) [µM]	TGI (OVCAR-3 ovarian) [µM]	TGI (RXF 393 renal) [µM]	TGI (SF-295 CNS) [µM]	TGI (SK-OV-3 ovarian) [µM]	TGI (SN12C renal) [µM]	TGI (T-47D breast) [µM]	TGI (U251 CNS) [µM]	TGI (NCI-H460 lung) [µM]
Cc1cn(C2CC(O)C(Cn3cc(Cn4ncc(=O)[nH]c4=O)nn3)O2)c(=O)[nH]c1=O (centres undefined)	> 100	> 100	> 100	> 100	> 100	> 100	> 100	> 100	> 100	> 100	> 100	> 100	> 100	> 100	> 100	> 100	> 100	> 100	> 100	–
COC(=O)[C@@H]1C[C@H]([Se]c2ccccc2)CN1S(=O)(=O)c1ccc(C)cc1	> 100	> 100	> 100	> 100	> 100	> 100	> 100	> 100	> 100	> 100	> 100	> 100	> 100	> 100	> 100	> 100	> 100	> 100	> 100	> 100
Cc1ccc2c(c1)C(=O)C(Cc1ccccc1C(=O)O)C2 (centres undefined)	> 100	> 100	> 100	> 100	> 100	> 100	> 100	> 100	> 100	> 100	> 100	> 100	> 100	> 100	> 100	> 100	> 100	> 100	> 100	> 100
CC(=O)OCCCCn1cnc2nc(Nc3ccccc3)nc(Cl)c21	> 100	> 100	> 100	81.4	> 100	> 100	> 100	> 100	> 100	> 100	> 100	> 100	> 100	> 100	> 100	> 100	> 100	> 100	> 100	> 100
N#Cc1c(-c2ccccc2)c(N=Nc2ccc(F)cc2)c(=O)n2c1[nH]c1ccccc12	41	19.3	89.2	16.4	7.57	> 100	14.2	14.2	35.7	72.5	52.9	39.1	8.57	44.6	24.8	31.5	10.2	40.8	18.1	19.9
CCOC(=O)C(Cc1c2ccccc2cc2ccccc12)(NC(C)=O)C(=O)OCC	> 100	> 100	> 100	> 100	> 100	> 100	> 100	83.1	> 100	> 100	> 100	> 100	> 100	> 100	> 100	> 100	> 100	> 100	> 100	> 100
